# Measurements published in PubChem BioAssay (NCI).
#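 Assay format: 96-well plates, 48-hour exposure. TGI is the concentration that stops growth completely.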
# How the values were obtained:
# Experiment in all cases: growth of human tumour cells (NCI), 48 h
# [1] = tested on: SK-MEL-28 melanoma
# [2] = tested on: A498 renal
# [3] = tested on: SR leukemia
# [4] = tested on: HS 578T breast
# [5] = tested on: SK-MEL-5 melanoma
# [6] = tested on: LOX IMVI melanoma
# [7] = tested on: OVCAR-5 ovarian
# [8] = tested on: ACHN renal
# [9] = tested on: 786-0 renal
# [10] = tested on: NCI/ADR-RES ovarian
# [11] = tested on: U251 CNS
# [12] = tested on: IGROV1 ovarian
# [13] = tested on: HOP-92 NSCLC
# [14] = tested on: SF-539 CNS
# [15] = tested on: SNB-75 CNS
# [16] = tested on: OVCAR-4 ovarian
# [17] = tested on: COLO 205 colon
# [18] = tested on: TK-10 renal
# [19] = tested on: UO-31 renal
# [20] = tested on: RPMI-8226 leukemia
# [21] = tested on: HT29 colon
# [22] = tested on: MALME-3M melanoma
# [23] = tested on: NCI-H522 lung
# [24] = tested on: CAKI-1 renal
# [25] = tested on: SW-620 colon
# [26] = tested on: BT-549 breast
# [27] = tested on: SNB-19 CNS
# [28] = tested on: NCI-H460 lung
# [29] = tested on: PC-3 prostate
# [30] = tested on: NCI-H23 lung
# [31] = tested on: MDA-MB-231 breast
# [32] = tested on: MOLT-4 leukemia
# [33] = tested on: SF-295 CNS
# [34] = tested on: HOP-62 NSCLC
# [35] = tested on: OVCAR-3 ovarian
# [36] = tested on: HCC-2998 colon
# [37] = tested on: MDA-MB-435
# [38] = tested on: A549 NSCLC
# [39] = tested on: K-562 leukemia
# [40] = tested on: HCT-116 colon
# [41] = tested on: T-47D breast
# [42] = tested on: UACC-257 melanoma
# [43] = tested on: KM12 colon
# [44] = tested on: SN12C renal
# [45] = tested on: SK-OV-3 ovarian
# [46] = tested on: RXF 393 renal
# [47] = tested on: EKVX NSCLC
# [48] = tested on: MCF7 breast
# [49] = tested on: OVCAR-8 ovarian
# [50] = tested on: HL-60(TB) leukemia
# [51] = tested on: CCRF-CEM leukemia
# [52] = tested on: SK-MEL-2 melanoma
# [53] = tested on: HCT-15 colon
# [54] = tested on: DU-145 prostate
# [55] = tested on: MDA-N
# [56] = tested on: NCI-H226 lung
# [57] = tested on: SF-268 CNS
# [58] = tested on: M14 melanoma
# [59] = tested on: UACC-62 melanoma
smiles,measurement,setting,value
COC(=O)C1=C(C)NC(C)=C(C(=O)OC)C1c1ccc(NO)cc1,TGI,[1],34.1 µM
same,TGI,[2],93.8 µM
same,TGI,[3],> 20.4 µM
same,TGI,[4],47.3 µM
same,TGI,[5],30.1 µM
same,TGI,[6],12.9 µM
same,TGI,[7],29.8 µM
same,TGI,[8],25.8 µM
same,TGI,[9],28.9 µM
same,TGI,[10],48.5 µM
same,TGI,[11],29.9 µM
same,TGI,[12],30.9 µM
same,TGI,[13],12.7 µM
same,TGI,[14],29.6 µM
same,TGI,[15],45.8 µM
same,TGI,[16],25 µM
same,TGI,[17],29.2 µM
same,TGI,[18],30.9 µM
same,TGI,[19],23.5 µM
same,TGI,[20],16.4 µM
same,TGI,[21],29.8 µM
same,TGI,[22],25.8 µM
same,TGI,[23],12.2 µM
same,TGI,[24],29.1 µM
same,TGI,[25],19.8 µM
same,TGI,[26],26.5 µM
same,TGI,[27],> 78.8 µM
same,TGI,[28],33.9 µM
same,TGI,[29],26.3 µM
same,TGI,[30],49.8 µM
same,TGI,[31],26.6 µM
same,TGI,[32],> 22.4 µM
same,TGI,[33],33.1 µM
same,TGI,[34],32.9 µM
same,TGI,[35],26.7 µM
same,TGI,[36],35.1 µM
same,TGI,[37],28.7 µM
same,TGI,[38],43.5 µM
same,TGI,[39],8.07 µM
same,TGI,[40],21.8 µM
same,TGI,[41],32.7 µM
same,TGI,[42],15.7 µM
same,TGI,[43],31.6 µM
same,TGI,[44],33.6 µM
same,TGI,[45],50.3 µM
same,TGI,[46],36 µM
same,TGI,[47],47.4 µM
same,TGI,[48],19.2 µM
same,TGI,[49],24.7 µM
same,TGI,[50],> 20.2 µM
same,TGI,[51],> 27.3 µM
same,TGI,[52],34.2 µM
same,TGI,[53],26.5 µM
same,TGI,[54],35.8 µM
same,TGI,[55],24.7 µM
same,TGI,[56],47.1 µM
same,TGI,[57],43.1 µM
same,TGI,[58],27.9 µM
same,TGI,[59],26.8 µM
CC(C)(Cl)C(Cl)CC/C(CBr)=C(\Cl)CCl (configuration not stated),TGI,[1],8.84 µM
same,TGI,[2],35.3 µM
same,TGI,[3],3.31 µM
same,TGI,[4],25.3 µM
same,TGI,[5],6.58 µM
same,TGI,[6],1.35 µM
same,TGI,[7],28.3 µM
same,TGI,[8],28.3 µM
same,TGI,[9],6.5 µM
same,TGI,[10],34 µM
same,TGI,[11],16.2 µM
same,TGI,[12],4.66 µM
same,TGI,[13],23.7 µM
same,TGI,[14],15.5 µM
same,TGI,[15],14.1 µM
same,TGI,[16],7.45 µM
same,TGI,[17],11.1 µM
same,TGI,[18],27.7 µM
same,TGI,[19],17 µM
same,TGI,[20],4.59 µM
same,TGI,[21],14.7 µM
same,TGI,[22],20.2 µM
same,TGI,[23],1.88 µM
same,TGI,[24],9.92 µM
same,TGI,[25],4.12 µM
same,TGI,[26],3.63 µM
same,TGI,[27],32.7 µM
same,TGI,[28],28 µM
same,TGI,[29],20 µM
same,TGI,[30],14.4 µM
same,TGI,[31],7.28 µM
same,TGI,[32],2.63 µM
same,TGI,[33],30.6 µM
same,TGI,[34],26 µM
same,TGI,[35],12.2 µM
same,TGI,[36],27.7 µM
same,TGI,[37],8.56 µM
same,TGI,[38],34.1 µM
same,TGI,[39],17.1 µM
same,TGI,[40],8.74 µM
same,TGI,[41],3.88 µM
same,TGI,[42],14 µM
same,TGI,[43],19.5 µM
same,TGI,[44],9.47 µM
same,TGI,[45],17.9 µM
same,TGI,[46],23 µM
same,TGI,[47],31.8 µM
same,TGI,[48],32.1 µM
same,TGI,[49],12.6 µM
same,TGI,[50],4.65 µM
same,TGI,[51],2.95 µM
same,TGI,[52],5.32 µM
same,TGI,[53],4.35 µM
same,TGI,[54],26.7 µM
same,TGI,[55],5.26 µM
same,TGI,[56],15.3 µM
same,TGI,[57],29.1 µM
same,TGI,[58],3.61 µM
same,TGI,[59],3.79 µM
Cc1ccc2nc(C=Nc3ccccc3Cl)cc(C)c2c1,TGI,[1],42 µM
same,TGI,[2],> 100 µM
same,TGI,[3],26.6 µM
same,TGI,[4],81.2 µM
same,TGI,[5],29.5 µM
same,TGI,[6],22.6 µM
same,TGI,[7],> 100 µM
same,TGI,[8],> 100 µM
same,TGI,[9],33.2 µM
same,TGI,[10],40.2 µM
same,TGI,[11],37.7 µM
same,TGI,[12],36.7 µM
same,TGI,[13],83 µM
same,TGI,[14],33.7 µM
same,TGI,[15],56.2 µM
same,TGI,[16],92.9 µM
same,TGI,[17],> 100 µM
same,TGI,[18],98.7 µM
same,TGI,[19],35.5 µM
same,TGI,[20],> 100 µM
same,TGI,[21],36.8 µM
same,TGI,[22],61.9 µM
same,TGI,[23],47.2 µM
same,TGI,[24],> 100 µM
same,TGI,[25],28.5 µM
same,TGI,[26],30.1 µM
same,TGI,[27],> 100 µM
same,TGI,[28],38.6 µM
same,TGI,[29],> 100 µM
same,TGI,[30],46.4 µM
same,TGI,[31],35.6 µM
same,TGI,[32],35.1 µM
same,TGI,[33],47.2 µM
same,TGI,[34],> 100 µM
same,TGI,[35],35.4 µM
same,TGI,[36],> 100 µM
same,TGI,[37],28.5 µM
same,TGI,[38],> 100 µM
same,TGI,[39],> 100 µM
same,TGI,[40],16.3 µM
same,TGI,[41],47.4 µM
same,TGI,[42],30.6 µM
same,TGI,[43],35.9 µM
same,TGI,[44],28.6 µM
same,TGI,[45],> 100 µM
same,TGI,[46],29.6 µM
same,TGI,[47],> 100 µM
same,TGI,[48],46.8 µM
same,TGI,[49],29.9 µM
same,TGI,[50],18.4 µM
same,TGI,[51],52.8 µM
same,TGI,[52],> 100 µM
same,TGI,[53],38.1 µM
same,TGI,[54],> 100 µM
same,TGI,[55],23.8 µM
same,TGI,[56],48.8 µM
same,TGI,[57],40 µM
same,TGI,[58],35.1 µM
same,TGI,[59],30.4 µM
